# Source: the supplement of paper PMC10307832
# Legend:
# Assay in all cases: relative viability (nuclei count vs DMSO), 5 days (fraction); higher = more cells survive
# [1] = compound: COC1=CC=C(C=C1)CN2C=CC3=C2C=C(C=C3)C(=O)NO + O=C(c1cc(Cc2n[nH]c(=O)c3ccccc23)ccc1F)N1CCN(C(=O)C2CC2)CC1 [Olaparib] (partner 8 µM)
# How it was run: (§1)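 Relative viability is defined as nuclei in treated wells over nuclei in vehicle wells. Duplicate plates were run and medians reported. Lung cancer cell lines in 1536-well plates were dosed by pin tool one day after seeding, with one drug or with a fixed anchor-drug dose plus five library-drug doses (not always all listed) in √10 steps, and nuclei were counted after 5 days.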
# [2] = compound: COC1=CC=C(C=C1)CN2C=CC3=C2C=C(C=C3)C(=O)NO + CS(=O)(=O)CCNCc1ccc(-c2ccc3ncnc(Nc4ccc(OCc5cccc(F)c5)c(Cl)c4)c3c2)o1 [Lapatinib] (partner 2 µM)
# How it was run: as §1
# [3] = compound: COC1=CC=C(C=C1)CN2C=CC3=C2C=C(C=C3)C(=O)NO + Cc1cc(Nc2cc(N3CCN(C)CC3)nc(Sc3ccc(NC(=O)C4CC4)cc3)n2)n[nH]1 [Tozasertib] (partner 0.1 µM)
# How it was run: as §1
# [4] = compound: COC1=CC=C(C=C1)CN2C=CC3=C2C=C(C=C3)C(=O)NO + CC(C)C[C@H](NC(=O)[C@H](Cc1ccccc1)NC(=O)c1cnccn1)B(O)O [Bortezomib] (partner 0.002 µM)
# How it was run: as §1
Cell Line,relative viability ([1]; first compound 0.253 µM),relative viability ([1]; first compound 0.8 µM),relative viability ([1]; first compound 2.53 µM),relative viability ([1]; first compound 8 µM),relative viability ([2]; first compound 0.08 µM),relative viability ([2]; first compound 0.253 µM),relative viability ([2]; first compound 0.8 µM),relative viability ([2]; first compound 2.53 µM),relative viability ([2]; first compound 8 µM),relative viability ([3]; first compound 0.253 µM),relative viability ([3]; first compound 0.8 µM),relative viability ([3]; first compound 2.53 µM),relative viability ([3]; first compound 8 µM),relative viability ([4]; first compound 0.08 µM),relative viability ([4]; first compound 0.253 µM),relative viability ([4]; first compound 0.8 µM),relative viability ([4]; first compound 2.53 µM),relative viability ([4]; first compound 8 µM),relative viability ([1]; first compound 0.08 µM),relative viability ([3]; first compound 0.08 µM)
HARA,0.835,1.09,0.711,0.762,0.424,0.891,0.815,0.712,0.679,0.109,0.114,0.128,0.0964,0.536,1.22,1.15,1.12,1.13,,
HCC-44,0.931,1.01,1,1.06,0.777,0.924,0.944,0.921,0.963,0.909,0.946,0.863,0.792,0.845,0.912,0.897,0.914,0.907,0.974,0.803
NCI-H1915,0.26,0.234,0.259,0.24,0.301,0.977,1.01,1,0.958,0.431,0.422,0.355,0.401,0.769,0.921,0.989,0.924,1.02,0.233,0.259
NCI-H596,0.778,0.735,0.805,0.725,0.976,1.01,1.25,1.11,0.999,0.823,0.872,0.938,0.743,1.04,,0.943,1.07,1.02,0.66,1.05
NCI-H1666,0.737,0.745,0.682,0.818,0.428,0.778,0.821,0.649,0.716,0.622,0.571,0.641,0.628,0.621,1.02,0.782,0.84,0.774,0.746,0.498
NCI-H3122,0.642,0.616,0.6,0.583,0.959,0.934,1.03,1.04,0.959,0.327,0.397,0.352,0.382,1.06,1.03,1.04,1.09,0.983,0.624,
PC-14,0.224,0.306,0.236,0.215,0.199,0.349,0.38,0.384,0.373,0.548,0.561,0.638,0.486,0.706,0.726,0.954,0.956,0.937,0.242,0.302
NCI-H2087,0.595,0.676,0.524,0.56,0.522,1,1.05,1.05,0.807,0.293,0.246,0.294,0.234,0.863,0.775,0.898,0.754,0.606,0.564,0.253
